Structures can show the parent of a compound that is named as a salt.
What was measured:
[1] = system: Rhodanobacter sp. FW104-10B01
In short: (§1)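 Growth was read as OD600 at 24 h, or at 48 h for R2A strain comparisons, after washed cells at a final OD600 of 0.02 (80 µL) were added to 384-well plates holding serially diluted inorganic ion salts or equimolar nitrilotriacetic acid complexes. Aerobic plates were shaken at 700 rpm at 30 °C, but anaerobic plates were not. IC50 was calculated with the drc R package from at least two biological replicate curves, scaled between water and growth-blocking antibiotic controls and excluding wells with precipitate.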

[2] = system: Pseudomonas fluorescens FW300-N2E2
In short: as §1

[3] = medium / electron acceptor: 10B01 R2A/aerobic
[4] = medium / electron acceptor: 10B01 R2A/nitrate
[5] = medium / electron acceptor: N2E2 Glucose/aerobic
[6] = medium / electron acceptor: N2E2 Glucose/aerobic 0.25xMinerals
[7] = medium / electron acceptor: N2E2 Glucose/aerobic (2)
[8] = medium / electron acceptor: N2E2 KB/aerobic
[9] = medium / electron acceptor: N2E2 LB/aerobic
[10] = medium / electron acceptor: N2E2 LB/aerobic (2)
[11] = medium / electron acceptor: N2E2 LB/nitrate
[12] = medium / electron acceptor: N2E2 Lactate/aerobic
[13] = medium / electron acceptor: N2E2 R2A/aerobic

## O.O.O.O.O.O.[Al+3].[Cl-].[Cl-].[Cl-] [Aluminum chloride hydrate]
[1]; [3]
  IC50 growth inhibition: 3.54 mM
[1]; [4]
  IC50 growth inhibition: > 5 mM
[2]; [5]
  IC50 growth inhibition: > 5 mM
[2]; [6]
  IC50 growth inhibition: 0.409 mM
[2]; [7]
  IC50 growth inhibition: > 5 mM
[2]; [8]
  IC50 growth inhibition: > 5 mM
[2]; [9]
  IC50 growth inhibition: > 5 mM
[2]; [10]
  IC50 growth inhibition: > 5 mM
[2]; [11]
  IC50 growth inhibition: 4.64 mM
[2]; [12]
  IC50 growth inhibition: > 5 mM
[2]; [13]
  IC50 growth inhibition: 0.227 mM

## Cl.N [Ammonium chloride]
[1]; [3]
  IC50 growth inhibition: > 500 mM
[1]; [4]
  IC50 growth inhibition: > 500 mM
[2]; [5]
  IC50 growth inhibition: 354 mM
[2]; [6]
  IC50 growth inhibition: 347 mM
[2]; [7]
  IC50 growth inhibition: 330 mM
[2]; [8]
  IC50 growth inhibition: 333 mM
[2]; [9]
  IC50 growth inhibition: 372 mM
[2]; [10]
  IC50 growth inhibition: 422 mM
[2]; [11]
  IC50 growth inhibition: 199 mM
[2]; [12]
  IC50 growth inhibition: 355 mM
[2]; [13]
  IC50 growth inhibition: > 500 mM

## O.O.[Ba+2].[Cl-].[Cl-] [Barium chloride dihydrate]
[1]; [3]
  IC50 growth inhibition: > 5 mM
[1]; [4]
  IC50 growth inhibition: > 5 mM
[2]; [5]
  IC50 growth inhibition: > 5 mM
[2]; [6]
  IC50 growth inhibition: 3.19 mM
[2]; [7]
  IC50 growth inhibition: 2.84 mM
[2]; [8]
  IC50 growth inhibition: 3.22 mM
[2]; [9]
  IC50 growth inhibition: > 5 mM
[2]; [10]
  IC50 growth inhibition: > 5 mM
[2]; [11]
  IC50 growth inhibition: 4.99 mM
[2]; [12]
  IC50 growth inhibition: > 5 mM
[2]; [13]
  IC50 growth inhibition: > 5 mM

## O.O.O.O.O.[Cd+2].[Cd+2].[Cl-].[Cl-].[Cl-].[Cl-] [Cadmium chloride hemipentahydrate]
[1]; [3]
  IC50 growth inhibition: 0.11 mM
[1]; [4]
  IC50 growth inhibition: 0.189 mM
[2]; [5]
  IC50 growth inhibition: < 0.00244 mM
[2]; [6]
  IC50 growth inhibition: < 0.00244 mM
[2]; [7]
  IC50 growth inhibition: < 0.00244 mM
[2]; [8]
  IC50 growth inhibition: 0.117 mM
[2]; [9]
  IC50 growth inhibition: 0.141 mM
[2]; [10]
  IC50 growth inhibition: 0.0516 mM
[2]; [11]
  IC50 growth inhibition: 0.111 mM
[2]; [12]
  IC50 growth inhibition: < 0.00244 mM
[2]; [13]
  IC50 growth inhibition: 0.014 mM

## [Ca+2].[Cl-].[Cl-] [Calcium chloride dihydrate]
[1]; [3]
  IC50 growth inhibition: 354 mM
[1]; [4]
  IC50 growth inhibition: 354 mM
[2]; [5]
  IC50 growth inhibition: > 500 mM
[2]; [6]
  IC50 growth inhibition: > 500 mM
[2]; [7]
  IC50 growth inhibition: > 500 mM
[2]; [8]
  IC50 growth inhibition: > 500 mM
[2]; [9]
  IC50 growth inhibition: 309 mM
[2]; [10]
  IC50 growth inhibition: 365 mM
[2]; [11]
  IC50 growth inhibition: 65.1 mM
[2]; [12]
  IC50 growth inhibition: 452 mM
[2]; [13]
  IC50 growth inhibition: 333 mM

## [Ce+3].[Cl-].[Cl-].[Cl-] [Cerium(III) chloride]
[1]; [3]
  IC50 growth inhibition: < 0.244 mM
[1]; [4]
  IC50 growth inhibition: < 0.244 mM
[2]; [5]
  IC50 growth inhibition: < 0.244 mM
[2]; [6]
  IC50 growth inhibition: < 0.244 mM
[2]; [7]
  IC50 growth inhibition: < 0.244 mM
[2]; [8]
  IC50 growth inhibition: < 0.244 mM
[2]; [9]
  IC50 growth inhibition: < 0.244 mM
[2]; [10]
  IC50 growth inhibition: < 0.244 mM
[2]; [11]
  IC50 growth inhibition: < 0.244 mM
[2]; [12]
  IC50 growth inhibition: < 0.244 mM
[2]; [13]
  IC50 growth inhibition: < 0.244 mM

## [Cl-].[Cs+] [Cesium chloride]
[1]; [3]
  IC50 growth inhibition: 0.452 mM
[1]; [4]
  IC50 growth inhibition: 3.79 mM
[2]; [5]
  IC50 growth inhibition: < 0.244 mM
[2]; [6]
  IC50 growth inhibition: < 0.244 mM
[2]; [7]
  IC50 growth inhibition: < 0.244 mM
[2]; [8]
  IC50 growth inhibition: 0.791 mM
[2]; [9]
  IC50 growth inhibition: 5.91 mM
[2]; [10]
  IC50 growth inhibition: 2.14 mM
[2]; [11]
  IC50 growth inhibition: 16.6 mM
[2]; [12]
  IC50 growth inhibition: < 0.244 mM
[2]; [13]
  IC50 growth inhibition: 1.2 mM

## O.O.O.O.O.O.[Cl][Cr]([Cl])[Cl] [Chromium(III) Chloride Hexahydrate]
[1]; [3]
  IC50 growth inhibition: 2.16 mM
[1]; [4]
  IC50 growth inhibition: 3.46 mM
[2]; [5]
  IC50 growth inhibition: < 0.00244 mM
[2]; [6]
  IC50 growth inhibition: < 0.00244 mM
[2]; [7]
  IC50 growth inhibition: < 0.00244 mM
[2]; [8]
  IC50 growth inhibition: > 5 mM
[2]; [9]
  IC50 growth inhibition: 4.91 mM
[2]; [10]
  IC50 growth inhibition: 4.91 mM
[2]; [11]
  IC50 growth inhibition: > 5 mM
[2]; [12]
  IC50 growth inhibition: < 0.00244 mM
[2]; [13]
  IC50 growth inhibition: 0.322 mM

## O.O.O.O.O.O.[Cl-].[Cl-].[Co+2] [Cobalt chloride hexahydrate]
[1]; [3]
  IC50 growth inhibition: 0.592 mM
[1]; [4]
  IC50 growth inhibition: 0.484 mM
[2]; [5]
  IC50 growth inhibition: < 0.00244 mM
[2]; [6]
  IC50 growth inhibition: < 0.00244 mM
[2]; [7]
  IC50 growth inhibition: < 0.00244 mM
[2]; [8]
  IC50 growth inhibition: 0.0208 mM
[2]; [9]
  IC50 growth inhibition: 0.175 mM
[2]; [10]
  IC50 growth inhibition: 0.0867 mM
[2]; [11]
  IC50 growth inhibition: > 5 mM
[2]; [12]
  IC50 growth inhibition: 0.00741 mM
[2]; [13]
  IC50 growth inhibition: 0.0138 mM

## O=C(O)C[C@H](NCCN[C@@H](CC(=O)O)C(=O)O)C(=O)O [Ethylenediamine-N,N'-disuccinic acid]
[1]; [3]
  IC50 growth inhibition: 1.76 mM
[1]; [4]
  IC50 growth inhibition: 2.76 mM
[2]; [5]
  IC50 growth inhibition: < 0.122 mM
[2]; [6]
  IC50 growth inhibition: < 0.122 mM
[2]; [7]
  IC50 growth inhibition: < 0.122 mM
[2]; [8]
  IC50 growth inhibition: < 0.122 mM
[2]; [9]
  IC50 growth inhibition: < 0.122 mM
[2]; [10]
  IC50 growth inhibition: < 0.122 mM
[2]; [11]
  IC50 growth inhibition: 0.488 mM
[2]; [12]
  IC50 growth inhibition: < 0.122 mM
[2]; [13]
  IC50 growth inhibition: < 0.122 mM

## [Cl][Fe]([Cl])[Cl] [Ferric chloride]
[1]; [3]
  IC50 growth inhibition: > 50 mM
[1]; [4]
  IC50 growth inhibition: > 50 mM
[2]; [5]
  IC50 growth inhibition: > 50 mM
[2]; [6]
  IC50 growth inhibition: > 50 mM
[2]; [7]
  IC50 growth inhibition: 39.2 mM
[2]; [8]
  IC50 growth inhibition: > 50 mM
[2]; [9]
  IC50 growth inhibition: > 50 mM
[2]; [10]
  IC50 growth inhibition: > 50 mM
[2]; [11]
  IC50 growth inhibition: > 50 mM
[2]; [12]
  IC50 growth inhibition: 41.7 mM
[2]; [13]
  IC50 growth inhibition: 0.237 mM

## [Cl][Ga]([Cl])[Cl] [Gallium(III)chloride]
[1]; [3]
  IC50 growth inhibition: 1 mM
[1]; [4]
  IC50 growth inhibition: 1.67 mM
[2]; [5]
  IC50 growth inhibition: < 0.0244 mM
[2]; [6]
  IC50 growth inhibition: < 0.0244 mM
[2]; [7]
  IC50 growth inhibition: < 0.0244 mM
[2]; [8]
  IC50 growth inhibition: < 0.0244 mM
[2]; [9]
  IC50 growth inhibition: < 0.0244 mM
[2]; [10]
  IC50 growth inhibition: < 0.0244 mM
[2]; [11]
  IC50 growth inhibition: < 0.0244 mM
[2]; [12]
  IC50 growth inhibition: < 0.0244 mM
[2]; [13]
  IC50 growth inhibition: < 0.0244 mM

## NO [Hydroxylamine hydrochloride]
[1]; [3]
  IC50 growth inhibition: 31.9 mM
[1]; [4]
  IC50 growth inhibition: > 500 mM
[2]; [5]
  IC50 growth inhibition: < 0.244 mM
[2]; [6]
  IC50 growth inhibition: < 0.244 mM
[2]; [7]
  IC50 growth inhibition: < 0.244 mM
[2]; [8]
  IC50 growth inhibition: < 0.244 mM
[2]; [9]
  IC50 growth inhibition: < 0.244 mM
[2]; [10]
  IC50 growth inhibition: < 0.244 mM
[2]; [11]
  IC50 growth inhibition: 0.694 mM
[2]; [12]
  IC50 growth inhibition: < 0.244 mM
[2]; [13]
  IC50 growth inhibition: < 0.244 mM

## O.[Cl-].[Li+] [Lithium chloride hydrate]
[1]; [3]
  IC50 growth inhibition: 15.6 mM
[1]; [4]
  IC50 growth inhibition: 98.7 mM
[2]; [5]
  IC50 growth inhibition: 349 mM
[2]; [6]
  IC50 growth inhibition: > 500 mM
[2]; [7]
  IC50 growth inhibition: 33.9 mM
[2]; [8]
  IC50 growth inhibition: 325 mM
[2]; [9]
  IC50 growth inhibition: 354 mM
[2]; [10]
  IC50 growth inhibition: 354 mM
[2]; [11]
  IC50 growth inhibition: 263 mM
[2]; [12]
  IC50 growth inhibition: 321 mM
[2]; [13]
  IC50 growth inhibition: 176 mM

## O.O.O.O.O.O.[Cl-].[Cl-].[Mg+2] [Magnesium chloride hexahydrate]
[1]; [3]
  IC50 growth inhibition: 218 mM
[1]; [4]
  IC50 growth inhibition: 141 mM
[2]; [5]
  IC50 growth inhibition: 276 mM
[2]; [6]
  IC50 growth inhibition: 431 mM
[2]; [7]
  IC50 growth inhibition: 366 mM
[2]; [8]
  IC50 growth inhibition: 354 mM
[2]; [9]
  IC50 growth inhibition: 354 mM
[2]; [10]
  IC50 growth inhibition: 360 mM
[2]; [11]
  IC50 growth inhibition: 321 mM
[2]; [12]
  IC50 growth inhibition: 354 mM
[2]; [13]
  IC50 growth inhibition: 268 mM

## O.O.O.O.[Cl][Mn][Cl] [Manganese (II) chloride tetrahydrate]
[1]; [3]
  IC50 growth inhibition: > 5 mM
[1]; [4]
  IC50 growth inhibition: > 5 mM
[2]; [5]
  IC50 growth inhibition: > 5 mM
[2]; [6]
  IC50 growth inhibition: > 5 mM
[2]; [7]
  IC50 growth inhibition: 1.57 mM
[2]; [8]
  IC50 growth inhibition: > 5 mM
[2]; [9]
  IC50 growth inhibition: 3.79 mM
[2]; [10]
  IC50 growth inhibition: 3.91 mM
[2]; [11]
  IC50 growth inhibition: > 5 mM
[2]; [12]
  IC50 growth inhibition: > 5 mM
[2]; [13]
  IC50 growth inhibition: 1.45 mM

## O.O.O.O.O.O.[Cl][Ni][Cl] [Nickel (II) chloride hexahydrate]
[1]; [3]
  IC50 growth inhibition: 1.03 mM
[1]; [4]
  IC50 growth inhibition: 1.82 mM
[2]; [5]
  IC50 growth inhibition: 0.0112 mM
[2]; [6]
  IC50 growth inhibition: 0.00556 mM
[2]; [7]
  IC50 growth inhibition: 0.0143 mM
[2]; [8]
  IC50 growth inhibition: 3.92 mM
[2]; [9]
  IC50 growth inhibition: 3.59 mM
[2]; [10]
  IC50 growth inhibition: > 5 mM
[2]; [11]
  IC50 growth inhibition: > 5 mM
[2]; [12]
  IC50 growth inhibition: 0.0276 mM
[2]; [13]
  IC50 growth inhibition: 0.221 mM

— the supplement of paper PMC6461962
